# Values quoted from earlier work as cited in patent US7662599B2, “Nucleic acids and polypeptides involved in the production of cryptophycin” (priority 2004, dated 2010).
# Details: comparison in words
smiles,measurement,value
COc1ccc(C[C@H]2NC(=O)/C=C/C[C@@H]([C@H](C)[C@H]3O[C@@H]3c3ccccc3)OC(=O)[C@H](CC(C)C)OC(=O)[C@H](C)CNC2=O)cc1Cl [Cryptophycin 1],activity relative to other cryptophycins,the most active natural compound
